The values that follow come from PubChem BioAssay AID2060622 (Molecular Pharmacology Branch, DTP, NCI, 2025).

The test system of the experiment is 242566-281-R-J2-PDC complex spheroid viability. Briefly: Anticancer human tumor 242566-281-R-J2-PDC patient-derived pancreatic carcinoma cell line growth inhibition [CLK]. The settings on record: for viability, T/C: stronger effect = lower value. An excerpt: A high-throughput screen of multi-cell type tumor spheroids was designed to identify active combinations of […] and targeted small molecules. Complex spheroids include a stromal component modeled by human endothelial cells (HUVEC) and fibroblasts modeled by human mesenchymal stem cells (MSCs). The concentration ranges selected for each drug and investigational agent were based upon clinically achievable concentrations if the clinical Cmax of the agent was known.
Compounds. The drugs and investigational agents: cirtuvivint (SM08502; NSC835563), CC-671 (NSC850746), vemurafenib (NSC761431), tapotoclax (NSC804041), sotorasib (NSC818433), adagrasib (NSC831453), MRTX-1133 (NSC836407), BAY2416964 (NSC825713), copanlisib (NSC816437), inavolisib (NSC800729), abemaciclib (NSC768073), osimertinib (NSC779217), entinostat (NSC756642), eltanexor (KPT-8602, NSC794443), venetoclax (NSC766270), ceralasertib (NSC777638), bortezomib (NSC756655), olaparib (NSC753686), talazoparib (NSC767125), alisertib (NSC759677), peposertib (NSC802822), gemcitabine (NSC613327), 5-fluorouracil (NSC19893), SN-38 (NSC673596), oxaliplatin (NSC266046), paclitaxel (NSC125973), and doxorubicin (NSC123127), were obtained from the National Cancer Institute (NCI) Developmental Therapeutics Program Chemical Repository. The FDA-approved anticancer drug set is available from the Developmental Therapeutics Program at https://dtp.cancer.gov/organization/dscb/obtaining/available plates.htm. […] The stock solutions were prepared in dimethyl sulfoxide (DMSO, Sigma-Aldrich, St. Louis, MO, cat. D2650), except for the platinum complexes which were prepared in saline (Quality Biological, Gaithersburg, MD, cat. 114-055-101), at 800-fold the tested concentration and stored at -70 degrees C prior to their use. All drugs and investigational agents were tested over a range starting from a high concentration at or near the clinical Cmax and decreasing in half-log increments. If the clinical Cmax for an agent had not been determined, the highest concentration tested was 10 microM.
Cell Culture. All cells were maintained in an incubator at 37 degrees C and 5% CO2 with 95% humidity. The PDC lines were cultured according to standard operating procedures established by the NCI PDMR. Briefly, all PDCs were thawed and cultured in Matrigel-coated flasks prepared with a working solution of 1X Ham's F-12 nutrient mix, without supplementation (Invitrogen, Waltham, MA, cat. 11765054), 100 U/mL penicillin-streptomycin (Invitrogen, cat. 15140122), and 2.5% Matrigel (Corning Inc., Corning, NY, cat. 354248) for the first three passages. The 947758-054-R-J2-PDC line was cultured in 6B/Colon 1A media, which includes advanced DMEM/F-12 (Thermo Fisher Scientific, cat. 12634028), 10 mM HEPES (Thermo Fisher Scientific, cat. 15630080), 1X GlutaMAX supplement (Thermo Fisher Scientific, cat. 35050061), 0.1 mg/mL primocin (InvivoGen, cat. ant-pm-2), 10% defined fetal bovine serum, heat inactivated (HyClone Laboratories Inc., cat. SH30070.03HI), 1.25 mM N-Acetyl-L-cysteine (Sigma-Aldrich, cat. A9165), 10 mM nicotinamide (Sigma-Aldrich, cat. N0636), 1X B-27 supplement (Thermo Fisher Scientific, cat. 17504044), 1X N-2 supplement (Thermo Fisher Scientific, cat. 17502048), and 10 microM Y-27632 dihydrochloride (Tocris Bioscience, cat. 1254). The 876862-298-R-J1-PDC was cultured in 6E media, which includes all 6B/Colon 1A media components plus 50% L-WRN conditioned media (ATCC, cat. CRL-3276), 50 ng/mL recombinant human EGF recombinant protein (hEGF; Thermo Fisher Scientific, cat. PHG0311), 10 ng/mL recombinant human fibroblast growth factor 10 (hGFG-10; PeproTech, cat. 100-26), 1 ng/mL recombinant human fibroblast growth factor 2 (hFGF-2; PeproTech, cat. 100-18B), and 1 µM prostaglandin E2 (PGE2; Tocris, cat. 2296). The 227483-062-R1-J1-PDC line was cultured in Panc media, containing all 6E components except hFGF-2, with the addition of 500 nM SB-431542 (Selleckchem, cat. S1067) and 10 nM gastrin (Tocris, cat. 3006). […]

The structures appear in SMILES notation. Values joined by “and” are separate entries in the source; they are usually repeats but may differ in a detail not shown here. Equal entries are not always repeated.
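Further: spheroids exposed to compounds for 7 days before readout.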
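Wherever viability, T/C is given: 100% = DMSO vehicle control wells.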

As usually defined, the viability, T/C is the ratio of treated to control. By IC50 is commonly meant the point on the concentration scale where inhibition reaches its midpoint. On to `CC(=O)O[C@H]1C(=O)[C@@]2(C)[C@H]([C@H](OC(=O)c3ccccc3)[C@]3(O)C[C@H](OC(=O)[C@H](O)[C@@H](NC(=O)c4ccccc4)c4ccccc4)C(C)=C1C3(C)C)[C@]1(OC(C)=O)CO[C@@H]1C[C@@H]2O`, for which the viability, T/C is, setting by setting: (compound 0.0316 µM) 34.2% and 57.7%; (compound 0.1 µM) 33.9% and 45%; (compound 0.316 µM) 28.5% and 35.4%; (compound 1 µM) 23.9% and 38.6%; (compound 3.16 µM) 32.5% and 40%; (compound 10 µM) 34.1% and 56.3%. The half-inhibitory concentration (IC50) (curve of compound) was < 31.6 nM and 60.1 nM.
Consider `CC1COCCN1c1cc(C2(S(C)(=N)=O)CC2)nc(-c2ccnc3[nH]ccc23)n1` (stereo not given), for which the viability, T/C reads like this: (compound 0.0316 µM) 108% and 90.3%; (compound 0.1 µM) 104% and 84.2%; (compound 0.316 µM) 106% and 81%; (compound 1 µM) 108% and 90.7%; (compound 3.16 µM) 75.2% and 90.5%; (compound 10 µM) 37.9% and 60.6%. Moreover, where the note is “curve of compound”, the half-inhibitory concentration (IC50) is 6890 nM and > 10000 nM.
In the case of `CNC(=O)c1ccc(Nc2nc(OC3CCCC3)c3c(-c4ccc5nc(C)oc5c4)c[nH]c3n2)c(OC)c1`, the viability, T/C (compound 1 µM) is 69.1% [middle of 12 runs]; the viability, T/C (compound 3.16 µM) was 61% [middle of 12 runs]; the viability, T/C (compound 10 µM) is 55.9% [middle of 12 runs]. Further, for the setting “compound alone, run of 08/01/2023”, the IC50 is > 10000 nM and 2630 nM.
Turning to `COc1ccc([C@@H](O)c2cc(-c3ncnc4cc(N5CCOCC5)ccc34)c(F)cc2Cl)nn1`, the viability, T/C (compound 0.0316 µM) was 112% and 89.3%; the viability, T/C (compound 0.1 µM) was 111% and 92.2%; the viability, T/C (compound 0.316 µM) was 96.7% and 104%; the viability, T/C (compound 1 µM) was 83.7% and 91.3%; the viability, T/C (compound 3.16 µM) was 77.1% and 92.4%; the viability, T/C (compound 10 µM) is 48.2% and 71.3%. Further, the IC50 (curve of compound) is over 10000 nM.
For `COc1cccc2c1C(=O)c1c(O)c3c(c(O)c1C2=O)CC(O)(C(=O)CO)CC3OC1CC(N)C(O)C(C)O1` (stereo not given), the viability, T/C by setting is: (compound 0.0316 µM) 66.3% and 79%; (compound 0.1 µM) 41.5% and 64.7%; (compound 0.316 µM) 15.3% and 35.8%; (compound 1 µM) 7.56% and 20.2%; (compound 3.16 µM) 1.88% and 6.69%; (compound 10 µM) 1.33% and 1.37%. For the setting “curve of compound”, the IC50 was 66.6 nM and 183 nM.
Regarding `Nc1ccn(C2OC(CO)C(O)C2(F)F)c(=O)n1` (stereo not given), the viability, T/C (compound 0.0316 µM) was 39.5% and 87%; the viability, T/C (compound 0.1 µM) was 16.9% and 43.3%; the viability, T/C (compound 0.316 µM) is 11.7% and 21.3%; the viability, T/C (compound 1 µM) is 9.16% and 13.8%; the viability, T/C (compound 3.16 µM) was 7.63% and 10.3%; the viability, T/C (compound 10 µM) was 6.49% and 9.77%. Also, where the note is “curve of compound”, the 50% inhibitory concentration (IC50) is < 31.6 nM and 83.9 nM.
In the case of `O=C(c1cc(Cc2n[nH]c(=O)c3ccccc23)ccc1F)N1CCN(C(=O)C2CC2)CC1`, the viability, T/C runs as follows: (compound 0.0316 µM) 107% and 93.5%; (compound 0.1 µM) 97.4% and 85.4%; (compound 0.316 µM) 96.3% and 82.3%; (compound 1 µM) 102% and 94.1%; (compound 3.16 µM) 87.1% and 111%; (compound 10 µM) 72.5% and 75.4%. In addition, the half-maximal inhibitory concentration (IC50) (curve of compound) was over 10000 nM.
In the case of `O=c1[nH]cc(F)c(=O)[nH]1`, the viability, T/C was 103% and 83.7% (compound 0.0316 µM); 104% and 86% (compound 0.1 µM); 95.3% and 77.2% (compound 0.316 µM); 67.9% and 91.2% (compound 1 µM); 56.6% and 65% (compound 3.16 µM); 52.4% and 53.3% (compound 10 µM). For the setting “curve of compound”, the concentration for half-maximal inhibition (IC50) was over 10000 nM.
Turning to `CCCS(=O)(=O)Nc1ccc(F)c(C(=O)c2c[nH]c3ncc(-c4ccc(Cl)cc4)cc23)c1F` + CN1CCN(c2cc(C(=O)Nc3cc4cc(-c5cnn(C)c5)ccc4cn3)ccn2)CC1, the half-maximal inhibitory concentration (IC50) is 5800 nM (curve of first compound, second compound 0.0316 µM); 5580 nM (curve of first compound, second compound 0.1 µM); under 31.6 nM (curve of first compound, second compound 0.316 µM); under 31.6 nM (curve of first compound, second compound 1 µM); under 31.6 nM (curve of first compound, second compound 3.16 µM); under 31.6 nM (curve of first compound, second compound 10 µM). In addition, the viability, T/C runs as follows: (second compound 0.0316 µM, first compound 0.0316 µM) 98.8%; (second compound 0.0316 µM, first compound 0.1 µM) 93.1%; (second compound 0.0316 µM, first compound 0.316 µM) 96.3%; (second compound 0.0316 µM, first compound 1 µM) 126%; (second compound 0.0316 µM, first compound 3.16 µM) 97.3%; (second compound 0.0316 µM, first compound 10 µM) 7.56%. For the same compound, the viability, T/C is, setting by setting: (second compound 0.1 µM, first compound 0.0316 µM) 84.8%; (second compound 0.1 µM, first compound 0.1 µM) 102%; (second compound 0.1 µM, first compound 0.316 µM) 87.5%; (second compound 0.1 µM, first compound 1 µM) 109%; (second compound 0.1 µM, first compound 3.16 µM) 89.6%; (second compound 0.1 µM, first compound 10 µM) 8.92%. For the same compound, the viability, T/C was 42.3% (second compound 0.316 µM, first compound 0.0316 µM); 44.7% (second compound 0.316 µM, first compound 0.1 µM); 45.2% (second compound 0.316 µM, first compound 0.316 µM); 40.5% (second compound 0.316 µM, first compound 1 µM); 33.1% (second compound 0.316 µM, first compound 3.16 µM); 8.52% (second compound 0.316 µM, first compound 10 µM). For the same compound, the viability, T/C by setting is: (second compound 1 µM, first compound 0.0316 µM) 4.91%; (second compound 1 µM, first compound 0.1 µM) 5.46%; (second compound 1 µM, first compound 0.316 µM) 4.96%; (second compound 1 µM, first compound 1 µM) 5.32%; (second compound 1 µM, first compound 3.16 µM) 5.68%; (second compound 1 µM, first compound 10 µM) 5.62%. Further, the viability, T/C reads like this: (second compound 3.16 µM, first compound 0.0316 µM) 7.02%; (second compound 3.16 µM, first compound 0.1 µM) 8.45%; (second compound 3.16 µM, first compound 0.316 µM) 6.23%; (second compound 3.16 µM, first compound 1 µM) 8.2%; (second compound 3.16 µM, first compound 3.16 µM) 10.1%; (second compound 3.16 µM, first compound 10 µM) 9.62%. The viability, T/C by setting is: (second compound 10 µM, first compound 0.0316 µM) 2.81%; (second compound 10 µM, first compound 0.1 µM) 2.91%; (second compound 10 µM, first compound 0.316 µM) 2.02%; (second compound 10 µM, first compound 1 µM) 2.43%; (second compound 10 µM, first compound 3.16 µM) 2.11%; (second compound 10 µM, first compound 10 µM) 1.29%.
